Reference: US20140350273A1, “PEDIATRIC USES OF CABAZITAXEL” (AVENTIS PHARMA S.A., priority 2012, published 2014)
Where two headings read alike, the source gives them in different places.

Tested on: human rhabdomyosarcoma RH-30
Format: in vivo
Conditions: for Average body weight change in % per mouse at nadir / Drug death (Day of death) / Regressions Complete / Regressions Partial / Tumor free survivors at day 120 / day of nadir / ΔT/ΔC in % (day 27) / Biological interpretation: 18
Protocol: This efficacy may be quantified, for example, as changes in tumor volume for each treated (T) and control (C) group, which are calculated for each animal and each day by subtracting the tumor volume on the day of first treatment (staging day) from the tumor volume on the specified observation day. This allows calculating the tumor growth inhibition: ΔT/ΔC=(median delta T/median delta C)×100. Individual tumor volume changes from baseline are thereafter analyzed by a non-parametric two-way ANOVA-TYPE (with factors: group and repeated days) followed by a post-hoc contrasts analysis, with Bonferroni-Holm adjustment for multiplicity, comparing all treated groups to the control group. […] A probability less than 5% (p<0.05) was considered as significant.
Based on the National Cancer Institute (NCl) standards, a ΔT/ΔC≦40% is the minimal level required to declare activity.
The tumor doubling time (in days; Td) was estimated from the plot of the log linear growth of the control group tumors in exponential growth (100 to 1000 mm^3 range) [T. H. Corbett et al., Cancer, 40: 2660-2680 (1977); F. M. Schabel et al., Cancer Drug Development, Part B, Methods in Cancer Research, 17: 3-51, New York, Academic Press Inc. (1979)].
This efficacy may also be quantified by the number of tumor regressions observed after therapy. Individual mice reporting a tumor volume ≦50% of the Day 0 measurement for two consecutive measurements over a seven day period were considered partial responders (PR). Individual mice lacking palpable tumors (<4×4 mm^2 for two consecutive measurements over a seven day period) were classified as complete responders (CR); a CR that persisted until study completion was considered a tumor-free survivor (TFS).
The animals subjected to the experiment are subcutaneously grafted unilaterally with approximately 30 mg of a tumor fragment on day 0. The animals are implanted with a human tumor xenografted in immunocompromized mice. Several days post tumor implantation, mice are randomized according to their body weight to the different groups of treatments and controls. The animals are observed every day. […] The groups are then weighed once or twice a week until the end of the trial.
The tumors are measured 1 to 5 times a week, depending on the tumor doubling time, until the tumor reaches approximately 1,000 mm^3, or until the animal dies (if this occurs before the tumor reaches 1,000 mm^3). The animals are necropsied immediately after euthanasia or death.
The selected tumor model was a human rhabdomyosarcoma RH-30, xenografted in SCID mice [Douglass E C, et al. Cytogenet Cell Genet. 1987; 45(3-4):14855.].
Treatment solutions were prepared first by mixing 1 volume of ethanolic stock solution and 1 volume of polysorbate 80, then by adding 18 volumes of glucose 5% in water.

[1] = 3.5 mg/kg per injection (total 7.0) IV days 14
[2] = 5.6 mg/kg per injection (total 11.2) IV days 14
[3] = 5.6 mg/kg per injection (total 11.2) IV days 14, listed as CABAZITAXEL
[4] = 9.0 mg/kg per injection (total 18) IV days 14
[5] = 14.5 mg/kg per injection (total 29) IV days 14
[6] = 14.5 mg/kg per injection (total 29) IV days 14, listed as CABAZITAXEL

SMILES: CO[C@H]1C(=O)[C@]2(C)[C@@H](OC)C[C@H]3OC[C@@]3(OC(C)=O)[C@H]2[C@H](OC(=O)c2ccccc2)[C@]2(O)C[C@H](OC(=O)[C@H](O)[C@@H](NC(=O)OC(C)(C)C)c3ccccc3)C(C)=C1C2(C)C [Cabazitaxel, 4α-acetoxy-2α-benzoyloxy-5β,20-epoxy-1β-hydroxy-7β,10β-dimethoxy-9-oxo-11-taxen-13α-yl (2R,3S)-3-tert-butoxycarbonyl-amino-2-hydroxy-3-phenylpropionate]
- Average body weight change in % per mouse at nadir [1]: −10.1%
- Drug death (Day of death) [1]: 0/6
- Regressions Complete [1]: 0/6
- Regressions Partial [1]: 0/6
- Tumor free survivors at day 120 [1]: 0/6
- day of nadir [1]: (24) day
- ΔT/ΔC in % (day 27) [1]: 24%
- Biological interpretation (3.5 mg/kg per injection (total 7.0) IV days 14, listed as CABAZITAXEL): Active
- Biological interpretation (3.5 mg/kg per injection (total 7.0) IV days 14, listed as cabazitaxel): active
- Tumor volume changes from baseline: Median (nMad) (3.5 mg/kg, day 18): 307 (35.6)
- Tumor volume changes from baseline: Median (nMad) (3.5 mg/kg, day 22): 418 (258)
- Tumor volume changes from baseline: Median (nMad) (3.5 mg/kg, day 29): 356.5
- Average body weight change in % per mouse at nadir [2]: −15.3%
- Drug death (Day of death) [2]: 0/6
- Regressions Complete [2]: 2/6
- Regressions Partial [2]: 5/6
- Tumor free survivors at day 120 [2]: 0/6
- day of nadir [2]: (28) day
- Biological interpretation [3]: Highly
- ΔT/ΔC in % (day 27) [3]: 0%
- Biological interpretation (5.6 mg/kg per injection (total 11.2) IV days 14, listed as cabazitaxel): highly active
- Tumor volume changes from baseline: Median (nMad) (5.6 mg/kg, day 18): 164 (30.4)
- Tumor volume changes from baseline: Median (nMad) (5.6 mg/kg, day 19): 203 (80.1)
- Tumor volume changes from baseline: Median (nMad) (5.6 mg/kg, day 20): 302.5
- Tumor volume changes from baseline: Median (nMad) (5.6 mg/kg, day 22): 192.5
- Tumor volume changes from baseline: Median (nMad) (5.6 mg/kg, day 27): 0 (130.5)
- Tumor volume changes from baseline: Median (nMad) (5.6 mg/kg, day 29): 106 (147.5)
- Tumor volume changes from baseline: Median (nMad) (5.6 mg/kg, day 33): −85 (117.1)
- Tumor volume changes from baseline: Median (nMad) (5.6 mg/kg, day 39): −139 (113.4)
- Tumor volume changes from baseline: Median (nMad) (5.6 mg/kg, day 41): −157 (113.4)
- Tumor volume changes from baseline: Median (nMad) (5.6 mg/kg, day 43): −104.5
- Tumor volume changes from baseline: Median (nMad) (5.6 mg/kg, day 35): −120 (98.6)
- Average body weight change in % per mouse at nadir [4]: −8.0%
- Biological interpretation [4]: very active
- Drug death (Day of death) [4]: 0/6
- Regressions Complete [4]: 6/6
- Regressions Partial [4]: 6/6
- Tumor free survivors at day 120 [4]: 5/6
- day of nadir [4]: (25) day
- ΔT/ΔC in % (day 27) [4]: 7%
- Biological interpretation (9.0 mg/kg per injection (total 18) IV days 14, listed as CABAZITAXEL): Very
- Tumor volume changes from baseline: Median (nMad) (9 mg/kg, day 18): 138.5
- Tumor volume changes from baseline: Median (nMad) (9 mg/kg, day 29): 62.5 (91.9)
- Tumor volume changes from baseline: Median (nMad) (9 mg/kg, day 33): −129 (142.3)
- Tumor volume changes from baseline: Median (nMad) (9 mg/kg, day 39): −189.5
- Tumor volume changes from baseline: Median (nMad) (9 mg/kg, day 41): −189.5
- Tumor volume changes from baseline: Median (nMad) (9 mg/kg, day 43): −189.5
- Tumor volume changes from baseline: Median (nMad) (9 mg/kg, day 35): −180 (94.9)
- Average body weight change in % per mouse at nadir [5]: −15.0%
- Drug death (Day of death) [5]: 0/6
- Regressions Complete [5]: 6/6
- Regressions Partial [5]: 6/6
- Tumor free survivors at day 120 [5]: 6/6
- day of nadir [5]: (24) day
- Biological interpretation [6]: Highly
- ΔT/ΔC in % (day 27) [6]: <0%
- Biological interpretation (14.5 mg/kg per injection (total 29) IV days 14, listed as cabazitaxel): highly active
- Tumor volume changes from baseline: Median (nMad) (14.5 mg/kg, day 29): −107 (150.5)
- Tumor volume changes from baseline: Median (nMad) (14.5 mg/kg, day 33): −180 (66)
- Tumor volume changes from baseline: Median (nMad) (14.5 mg/kg, day 46): −194 (74.1)
- Tumor volume changes from baseline: Median (nMad) (14.5 mg/kg, day 50): −194 (74.1)
- Tumor volume changes from baseline: Median (nMad) (14.5 mg/kg, day 35): −194 (74.1)
- Tumor volume changes from baseline: Median (nMad) (14.5 mg/kg, day 39): −194 (74.1)
- Tumor volume changes from baseline: Median (nMad) (14.5 mg/kg, day 41): −194 (74.1)
- Tumor volume changes from baseline: Median (nMad) (14.5 mg/kg, day 43): −194 (74.1)
- antitumor activity compared with docetaxel (conclusion of example 1): more active than docetaxel
